This note sets out measurements from patent publication EP0983763A1, “PREVENTIVES FOR RECONSTRICTION” (TAISHO PHARMACEUTICAL CO. LTD, priority 1997, dated 1998).

What is called inhibition is the relative decrease from the control value, in per cent.

Each structure is given as a SMILES string.

A short description of experiment [1]: Total blood cholesterol level by enzyme method in the WHHL rabbit endothelial injury model. The format is in vivo, WHHL strain male rabbits. The settings on record: WHHL rabbits, 4 weeks after endothelium injury, Means ± S.E., control 841±44. An excerpt:
(§1) As test animals were used a group of 4 homozygous hereditary hyperlipemic WHHL strain male rabbits of 2 months (available from Kitayama RABES K.K.) A balloon catheter for removing arterial embolus (Fogarty catheter, E-060-2F, available from Baxter Co., Inc.) was inserted into the right common carotid artery via the right external carotid artery of the rabbits under anesthesia with pentobarbital. The right common carotid artery was abraded three times with the balloon swollen (a balloon pressure of 0.5-1.0 atm) to produce a model for the injured vascular endothelium. The drug was administered for 4 weeks after the endothelium injury, and then the artery was excised and fixed with 10% neutral buffered formalin to prepare a slice of the arterial ring tissue. Elastic fiber-stained tissue preparations were prepared by Elastic Van Gieson (EVG) staining. Areas of the intima (I) and of the medium (M) were measured by means of an image analysis system (Adobe Photoshop, Unitimage for the Apple Macintosh) and a ratio of both values (I/M) was calculated to determine a level of intimal thickening. A total blood cholesterol level was measured according to an enzyme method (Autosera CHO-2, Daiichi Kagaku Yakuhin K.K.) using an autoanalyzer (Hitachi 7150 type).
(§2) The drug was given in admixture with a rabbit feed RC-4 (available from Oriental Kobo K.K.) at the concentrations of 0.0003% and of 0.003%, and then a dose was calculated from the amount of feed ingested and the body weight.

The test system of experiment [2] is intimal thickening. As to the kind of experiment: Inhibiting activity on intimal thickening in a model for vascular endothelial injury in normal rabbits (balloon catheter injury of right common carotid artery). Type of experiment: in vivo, NZW strain male rabbits. The following applies: for Level of intimal thickening I/M: 1 week before and 2 weeks after endothelium injury, Means ± S.E., control 0.251±0.030. As to the method: as §1, with “of 5 NZW” for “of 4 homozygous hereditary hyperlipemic WHHL”, “K.K.) After a drug was administered to rabbits for 1 week, a” for “K.K.) A”, “for 2” for “for 4”, “thickening.” for “thickening. A total blood cholesterol level was measured according to an enzyme method (Autosera CHO-2, Daiichi Kagaku Yakuhin K.K.) using an autoanalyzer (Hitachi 7150 type).”
The drug was given in admixture with a rabbit feed RC-4 (available from Oriental Kobo K.K.) at the concentration of 0.0003% and a dose was calculated from the amount of feed ingested and the body weight.

In another experiment the test system is smooth muscle cells. As to the kind of experiment: Histopathological observation of the thickened intima after injury of the blood vessel. The format is in vivo. The following applies: histopathologically observed; model and dose not stated.
For experiment [3], the system named is intimal thickening. As to the kind of experiment: Inhibiting activity on intimal thickening in a model for vascular endothelial injury in WHHL rabbits (balloon catheter injury of right common carotid artery). Type of experiment: in vivo, WHHL strain male rabbits. The settings on record: for Level of intimal thickening I/M: 4 weeks after endothelium injury, Means ± S.E., control 1.00±0.23.
From the text: as §1, §2

`CCCCCCCCCCCCCCSCC(=O)Nc1c(C(C)C)cccc1C(C)C` [Compound of the invention]: the figures for the Total blood cholesterol in experiment [1] (0.2 mg/kg (0.0003% in feed)) and in experiment [1] (2.0 mg/kg (0.003% in feed)) were 861 ± 83 mg/dL and 907 ± 48 mg/dL, respectively. Further, the “Level of intimal thickening I/M” value stood at 0.126±0.028 in the experiment with intimal thickening [2] (0.2 mg/kg (0.0003% in feed)), 0.45±0.19 in the experiment on intimal thickening [3] (0.2 mg/kg (0.0003% in feed)) and 0.38±0.05 in the experiment on intimal thickening [3] (2.0 mg/kg (0.003% in feed)). Also, the inhibition at 0.2 mg/kg turned out to be 49.8% in the experiment on intimal thickening [2] (Oryctolagus cuniculus, feed or water, 0.2 mg/kg (0.0003% in feed), from I/M ratio vs control group) and 55% in the experiment on intimal thickening [3] (Oryctolagus cuniculus, 0.2 mg/kg, from I/M ratio vs control group). In addition, the “number of smooth muscle cells during the proliferation period in the thickened intima” value in the experiment on smooth muscle cells was “decrease the number of smooth muscle cells”. For the same molecule, the inhibition at 2 mg/kg in the experiment on intimal thickening [3] (Oryctolagus cuniculus, 2.0 mg/kg, from I/M ratio vs control group) came to 62%.

As to `CC(C)(Sc1cc(C(C)(C)C)c(O)c(C(C)(C)C)c1)Sc1cc(C(C)(C)C)c(O)c(C(C)(C)C)c1` [Probucol, probucol, reference compound], in experiment [1] (190 mg/kg (0.35% in feed)), the Total blood cholesterol was determined as 723 ± 44 mg/dL. Also, the “Level of intimal thickening I/M” value in the experiment on intimal thickening [3] (190 mg/kg (0.35% in feed)) was found to be 0.43±0.08. Also, the inhibition at 190 mg/kg in the experiment on intimal thickening [3] (Oryctolagus cuniculus, 190 mg/kg, from I/M ratio vs control group) is 57%.

For the molecule `COc1ccc(/C=C/C(=O)Nc2ccccc2C(=O)O)cc1OC` [Tranilast, tranilast, reference compound], in the experiment on intimal thickening [2] (100 mg/kg (0.167% in feed)), the “Level of intimal thickening I/M” value is recorded as 0.184±0.051. The inhibition at 100 mg/kg in the experiment on intimal thickening [2] (Oryctolagus cuniculus, feed or water, 100 mg/kg (0.167% in feed), from I/M ratio vs control group) stood at 26.6%.
